Our source for the IC50 and inhibition values is PMC6704710, “Preclinical evaluation of 3D185, a novel potent inhibitor of FGFR1/2/3 and CSF-1R, in FGFR-dependent and macrophage-dominant cancer models” (Journal of Experimental & Clinical Cancer Research : CR, 2019).

Assay [1] has as its system PBMC (CSF-1). The assay can be described thus: Macrophage survival (CCK-8). The following applies: Homo sapiens, 168 h, 7 days, mean ± SD. The format is cell-based. The method, then:
Murine bone marrow and human monocytes were stimulated with CSF-1 for 7 days together with the indicated inhibitor, and cell viability was evaluated by the CCK-8 assay. The IC50 values are shown as the mean ± SD (nM) from two independent tests. B-E, To test the impact of 3D185 on the polarization of CSF-1-induced macrophages, murine bone marrow cells and human monocytes were induced to mature into macrophages with CSF-1 for 7 days and then stimulated with CSF-1, IL-4 and IL-13 for an additional 48 h. The expression of the markers MHC-II (b), CD86 (c), and CD206 (d) on induced murine macrophages and CD206 expression on induced human macrophages (e) were determined by flow cytometry, and the mean fluorescence intensity (MFI) was analyzed with FlowJo. Representative data from two independent experiments. f Murine bone marrow cells (left panel) and human monocytes (right panel) were induced to mature into macrophages with CSF-1 for 7 days and then stimulated with CSF-1, IL-4 and IL-13 and treated with vehicle or the indicated inhibitor for an additional 48 h. Then, all cells were collected to count viable cells by staining with trypan blue
Murine bone marrow-derived macrophages (BMDMs) and PBMCs were used for cell viability studies. […] Cell viability was measured using the CCK-8 assay. For IL-4/IL-13-induced macrophage survival analysis, viable cells were counted by trypan blue exclusion.

Assay [2] concerns the target T1, GSK3β(h) (Homo sapiens, UniProt P49841).
T1 construct: purchased Eurofins (KinaseProfiler)
As to the kind of experiment: Eurofins kinase panel. The format is biochemical. The following applies: read-out: Inhibition rate (%).

pIC50: −log10 of the molar value.

T1 sequence (P49841 whole entry): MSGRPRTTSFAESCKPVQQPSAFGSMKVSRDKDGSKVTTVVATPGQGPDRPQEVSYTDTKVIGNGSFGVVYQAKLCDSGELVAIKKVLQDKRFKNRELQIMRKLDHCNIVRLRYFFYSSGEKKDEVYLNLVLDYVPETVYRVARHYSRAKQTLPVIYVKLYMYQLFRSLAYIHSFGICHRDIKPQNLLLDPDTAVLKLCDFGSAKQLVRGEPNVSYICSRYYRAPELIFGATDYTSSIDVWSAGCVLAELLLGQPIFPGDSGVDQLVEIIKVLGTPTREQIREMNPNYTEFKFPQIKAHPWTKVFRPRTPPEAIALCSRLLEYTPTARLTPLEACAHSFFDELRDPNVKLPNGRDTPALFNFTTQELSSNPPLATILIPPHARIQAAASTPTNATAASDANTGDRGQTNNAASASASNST

`COc1cc(OC)c(Cl)c(-c2ccc3c(NC(=O)c4ccc(N5CCNC(C)(C)C5)cc4)n[nH]c3n2)c1Cl` [3D185] had a pIC50 in assay [1] of 6.93. Further, the inhibition at 0.01 µM in assay [2] (10 nM) came to 0%. Besides, the inhibition at 0.1 µM in assay [2] (100 nM) turned out to be 5%. The inhibition at 1 µM in assay [2] (1000 nM) was -5%.

As a reminder, the pIC50 is the negative decadic logarithm of the IC50, by convention in mol/L. A higher pIC50 goes with a low IC50. As usually defined, the inhibition is the change of the read-out against control, counted positive when it falls.
